Columns and labels:
[1] = tested on: blood lymphocytes; experiment: Lymphopenia assay; assay type: in vivo, mice
Method: Pro-drug compounds (i.e., primary alcohols such as VPC01091) are dissolved in 2% hydroxypropyl beta-cyclodextrin and introduced into mice by oral gavage at doses from 0.01 to 30 mg/kg body weight. After 24 hours (or multiples thereof), the mice are lightly anesthetized and ca. 0.1 ml of blood is drawn from the orbital sinus. The number of lymphocytes (in thousands per microliter of blood; normal is 4-11) is determined using a Hemavet blood analyzer. In the histogram showing the four isomers of VPC01091, the 100% value for the vehicle treated mouse was 7.5 at 24 hours; at 96 hours it was 5. There were three mice/group, the strain was mixed sv129×C57BL/6. Active compounds (e.g., VPC01211) are dissolved in acidified DMSO at 20 mM, and diluted 1:20 into 2% hydroxypropyl beta-cyclodextrin in water with mixing. This solution is introduced into mice by intraperitoneal (i.p.) injection at doses of 0.01-10 mg/kg body weight.
FIG. 3 describes total blood lymphocyte count following single dose of VPC01091 or vehicle. […] Five mice per group, male, 10-11 week old sv129/C57B16 strain.
A dose response curve for VPC01091 in the lymphopenia assay is given as FIG. 4. FIG. 4 graphically summarizes oral administration (gavage) of VPC01091 in 2% hydroxypropyl beta-cyclodextrin, 3 mice per group (same strain as in FIG. 3).
This phosphorylation of these compounds is thought to be catalyzed in vivo by sphingosine kinase type 2 (SPHK2), which is encoded by the SPHK2 gene in mice.

[2] = Heart rate assay; assay type: in vivo; conditions: mice, intravenous, 3 mg/kg (FIG. 2)
Method: In the assay the test compound was administered via IV Dosing and the vehicle was 2% cyclodextrin.
Mice were dosed with VPC01091 (intravenous, 3 mg/kg) or vehicle (2% hydroxypropyl beta-cyclodextrin) and heart rate measured at the indicated times post dosing. Heart rate was captured in unrestrained, conscious animals using the ECGenie™ system.

[3] = target: T1, human S1P type 3 (S1P3) receptor (Homo sapiens, UniProt Q99500); experiment: GTPγS-35 binding assay, S1P3; assay type: biochemical
T1 construct: expressed in transfected cells; host or cells: HEK293T (crude microsomes)
T1 sequence (Q99500 whole entry): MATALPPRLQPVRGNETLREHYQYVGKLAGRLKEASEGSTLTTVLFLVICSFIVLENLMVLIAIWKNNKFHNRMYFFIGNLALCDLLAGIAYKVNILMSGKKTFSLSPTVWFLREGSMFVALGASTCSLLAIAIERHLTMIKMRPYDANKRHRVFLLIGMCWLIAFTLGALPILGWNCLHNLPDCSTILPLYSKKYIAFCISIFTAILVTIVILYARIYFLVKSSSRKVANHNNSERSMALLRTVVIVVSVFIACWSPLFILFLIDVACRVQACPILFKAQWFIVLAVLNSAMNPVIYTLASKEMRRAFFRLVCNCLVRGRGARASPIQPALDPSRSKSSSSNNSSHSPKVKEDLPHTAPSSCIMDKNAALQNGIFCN
Method: The assay forces expression concomitantly of a recombinant GPCR (e.g., the S1P1-5 receptor) and each of the three subunits (typically, alphai2, beta1, gamma2) of a heterotrimeric G protein in a HEK293T cell by transfecting the cell with four plasmid DNAs encoding the respective proteins. About 60 hours after transfection the cells are harvested, opened, and the nucleus discarded. This allows for the preparation of a crude microsome from the remainder. Agonist (e.g., S1P) stimulation of the receptor-G protein complex on the microsomes results in the exchange of GTP for GDP on the alpha subunit in a dose-dependent manner. To detect the GTP-bound alpha subunit, we use a GTP analog (GTPγS-35), which is a radionuclide (sulfur-35) labeled phosphothionate, that is not hydrolyzed to GDP. The microsomes with the adherent G proteins are collected by filtration and the bound GTPγS-35 quantified in a liquid scintillation counter. The assay yields relative potency (EC50 values) and maximum effect (efficacy, Emax). Antagonist activity is detected as rightward shifts in the agonist dose-response curve in the presence of a fixed amount of antagonist. If the antagonist behaves competitively, the affinity of the receptor/antagonist pair (K1) can be determined.

[4] = target: T2, human S1P2 receptor (Homo sapiens, UniProt O95136); experiment: GTPγS-35 binding assay, S1P2; assay type: biochemical; set-up: expressed in transfected cells; host or cells: HEK293T (crude microsomes); conditions: FIG. 8
T2 sequence (O95136 whole entry): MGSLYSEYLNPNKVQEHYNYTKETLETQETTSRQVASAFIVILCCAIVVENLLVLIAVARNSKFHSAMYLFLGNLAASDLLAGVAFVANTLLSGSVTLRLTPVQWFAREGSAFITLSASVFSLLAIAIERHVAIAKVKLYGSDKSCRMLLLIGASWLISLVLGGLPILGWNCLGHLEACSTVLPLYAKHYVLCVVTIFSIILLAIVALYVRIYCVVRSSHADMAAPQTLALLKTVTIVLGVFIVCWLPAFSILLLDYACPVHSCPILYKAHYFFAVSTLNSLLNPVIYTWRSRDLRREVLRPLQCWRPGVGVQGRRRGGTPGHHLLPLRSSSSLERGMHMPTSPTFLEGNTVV
From the text: FIG. 8 graphically illustrates the results of a broken cell GTPγ^35S binding assay for the human S1P2 receptor. Compound ‘CA5-P’ is VPC01211. Compounds CA6-P and CA4-P are the corresponding cyclohexyl and cyclobutyl compounds. The ordinate represents percent GTPγ^35S binding and the abscissa represents log molar concentration of lipid.
(§1) This assay illustrates agonist activation of G protein coupled receptors (GPCRs) in isolation. The assay forces expression concomitantly of a recombinant GPCR (e.g., the S1P1-5 receptor) and each of the three subunits (typically, alphai2, beta1, gamma2) of a heterotrimeric G protein in a HEK293T cell by transfecting the cell with four plasmid DNAs encoding the respective proteins. About 60 hours after transfection the cells are harvested, opened, and the nucleus discarded. This allows for the preparation of a crude microsome from the remainder. […] The microsomes with the adherent G proteins are collected by filtration and the bound GTPγS-35 quantified in a liquid scintillation counter. […] Antagonist activity is detected as rightward shifts in the agonist dose-response curve in the presence of a fixed amount of antagonist. If the antagonist behaves competitively, the affinity of the receptor/antagonist pair (K1) can be determined.

[5] = target: T3, human S1P3 receptor (Homo sapiens, UniProt Q99500); experiment: Calcium mobilization assay, CHO-K1 cells expressing S1P3; assay type: cell-based; set-up: expressed in transfected cells; host or cells: hamster CHO-K1, clonal population; conditions: FIG. 9
T3 sequence (Q99500 whole entry): as the sequence (Q99500 whole entry) above
Method: FIG. 9 graphically illustrates the results of a calcium mobilization assay using CHO-K1 cells expressing recombinant human S1P3 receptor.
(§2) To measure calcium mobilization in response to agonist stimulation, cells were plated onto a 96 well plate, loaded with the calcium sensing dye Fluo-4AM and cells exposed to various concentrations of agonist for 3-5 minutes. Changes in fluorescence, which correlate with intracellular calcium mobilization, are detected using a FlexStation fluorimeter. Each agonist concentration was tested in triplicate.

[6] = target: T3, human S1P3 receptor; experiment: Calcium mobilization assay in T24 cells overexpressing S1P3; assay type: cell-based; set-up: expressed in transfected cells; conditions: 10 μM test compound, FIG. 15
Method: FIG. 15 is an illustration of the result of a calcium mobilization assay in T24 cells overexpressing the human S1P3 receptor in response to […] S1P in the presence of 10 μM VPC01211.

[7] = target: T4, human S1P1 receptor (Homo sapiens, UniProt P21453); experiment: GTPγS-35 binding assay, S1P1; assay type: biochemical; conditions: relative to S1P (FIG. 6)
T4 construct: expressed in transfected cells; host or cells: HEK293T (crude microsomes)
T4 sequence (P21453 whole entry): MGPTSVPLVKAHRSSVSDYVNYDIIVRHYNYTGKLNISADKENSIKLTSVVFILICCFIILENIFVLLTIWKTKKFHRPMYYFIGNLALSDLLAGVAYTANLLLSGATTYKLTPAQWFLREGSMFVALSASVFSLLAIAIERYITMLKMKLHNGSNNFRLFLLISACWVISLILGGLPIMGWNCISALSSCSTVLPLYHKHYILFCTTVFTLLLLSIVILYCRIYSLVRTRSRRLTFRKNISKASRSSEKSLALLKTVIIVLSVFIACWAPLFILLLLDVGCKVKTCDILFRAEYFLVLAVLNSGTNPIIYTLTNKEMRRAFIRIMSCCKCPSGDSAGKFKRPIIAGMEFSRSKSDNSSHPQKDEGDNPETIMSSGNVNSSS
T4 sequence (P04899 2-355 partner limits assumed): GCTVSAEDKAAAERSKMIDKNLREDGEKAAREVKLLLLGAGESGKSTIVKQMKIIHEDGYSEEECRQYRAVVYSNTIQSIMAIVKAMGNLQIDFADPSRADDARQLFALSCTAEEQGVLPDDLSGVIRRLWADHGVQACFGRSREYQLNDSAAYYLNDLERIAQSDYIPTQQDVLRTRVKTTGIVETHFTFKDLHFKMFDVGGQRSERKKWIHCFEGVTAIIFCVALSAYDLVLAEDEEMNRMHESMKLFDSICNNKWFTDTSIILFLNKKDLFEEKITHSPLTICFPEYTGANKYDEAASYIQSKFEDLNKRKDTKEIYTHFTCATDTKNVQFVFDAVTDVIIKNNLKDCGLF
T4 sequence (P62873 2-340 partner limits assumed): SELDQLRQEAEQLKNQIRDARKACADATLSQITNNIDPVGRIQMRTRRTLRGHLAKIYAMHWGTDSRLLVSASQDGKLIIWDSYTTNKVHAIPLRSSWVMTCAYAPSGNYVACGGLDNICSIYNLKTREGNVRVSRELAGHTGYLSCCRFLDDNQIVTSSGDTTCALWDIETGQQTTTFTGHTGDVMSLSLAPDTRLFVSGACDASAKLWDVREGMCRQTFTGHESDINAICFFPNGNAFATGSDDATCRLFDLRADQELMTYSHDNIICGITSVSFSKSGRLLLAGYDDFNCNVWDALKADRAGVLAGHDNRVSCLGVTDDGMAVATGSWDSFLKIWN
T4 sequence (P59768 2-68 partner limits assumed): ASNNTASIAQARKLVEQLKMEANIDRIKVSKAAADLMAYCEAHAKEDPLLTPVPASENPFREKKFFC
Method: This assay illustrates agonist activation of G protein coupled receptors (GPCRs) in isolation. The assay forces expression concomitantly of a recombinant GPCR (e.g., the S1P1-5 receptor) and each of the three subunits (typically, alphai2, beta1, gamma2) of a heterotrimeric G protein in a HEK293T cell by transfecting the cell with four plasmid DNAs encoding the respective proteins. About 60 hours after transfection the cells are harvested, opened, and the nucleus discarded. This allows for the preparation of a crude microsome from the remainder. Agonist (e.g., S1P) stimulation of the receptor-G protein complex on the microsomes results in the exchange of GTP for GDP on the alpha subunit in a dose-dependent manner. To detect the GTP-bound alpha subunit, we use a GTP analog (GTPγS-35), which is a radionuclide (sulfur-35) labeled phosphothionate, that is not hydrolyzed to GDP. The microsomes with the adherent G proteins are collected by filtration and the bound GTPγS-35 quantified in a liquid scintillation counter. […] Antagonist activity is detected as rightward shifts in the agonist dose-response curve in the presence of a fixed amount of antagonist. If the antagonist behaves competitively, the affinity of the receptor/antagonist pair (K1) can be determined.

[8] = target: T3, human S1P3 receptor; experiment: Schild plot of S1P dose response curves at S1P3; assay type: biochemical; set-up: expressed in transfected cells; host or cells: hamster CHO-K1, clonal population; conditions: FIGS. 12-14
From the text: FIG. 12 is an illustration of a Schild plot for the results of S1P dose response curves at the human S1P3 receptor, at the indicated concentrations of test compound VPC01222.
FIG. 13 is an illustration of a Schild plot for the results of S1P dose response curves at the human S1P3 receptor, at the indicated concentrations of test compound VPC01211.
FIG. 14 is an illustration of a Schild plot for the results of S1P dose response curves at the human S1P3 receptor, at the indicated concentrations of test compound VPC01214.
as §1, with “discarded.” for “discarded. This allows for the preparation of a crude microsome from the remainder.”

[9] = target: T5, human S1P4 receptor (Homo sapiens, UniProt O95977); experiment: GTPγS-35 binding assay, S1P4; assay type: biochemical; conditions: FIG. 10
T5 construct: expressed in transfected cells; host or cells: HEK293T (crude microsomes)
T5 sequence (O95977 whole entry): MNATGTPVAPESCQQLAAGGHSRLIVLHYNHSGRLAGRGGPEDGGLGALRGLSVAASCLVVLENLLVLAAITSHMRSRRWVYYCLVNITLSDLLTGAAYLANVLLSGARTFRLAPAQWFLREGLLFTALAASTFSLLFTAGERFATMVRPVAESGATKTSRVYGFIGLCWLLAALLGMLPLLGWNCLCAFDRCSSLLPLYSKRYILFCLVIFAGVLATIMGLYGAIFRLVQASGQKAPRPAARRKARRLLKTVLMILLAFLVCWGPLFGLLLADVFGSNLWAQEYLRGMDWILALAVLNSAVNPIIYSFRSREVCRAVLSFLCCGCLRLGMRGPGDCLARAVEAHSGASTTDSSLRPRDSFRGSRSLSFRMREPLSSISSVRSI
T5 sequence (P04899 2-355 partner limits assumed): as the sequence (P04899 2-355 partner limits assumed) above
T5 sequence (P62873 2-340 partner limits assumed): as the sequence (P62873 2-340 partner limits assumed) above
T5 sequence (P59768 2-68 partner limits assumed): as the sequence (P59768 2-68 partner limits assumed) above
From the text: FIG. 10 graphically illustrates the results of a broken cell GTPγ^35S binding assay for the human S1P4 receptor. Compound ‘CA5-P’ is VPC01211. Compounds CA6-P and CA4-P are the corresponding cyclohexyl and cyclobutyl compounds.
as §1, with “remainder. Agonist (e.g., S1P) stimulation of the receptor-G protein complex on the microsomes results in the exchange of GTP for GDP on the alpha subunit in a dose-dependent manner.” for “remainder.”

[10] = target: T6, human S1P5 receptor (Homo sapiens, UniProt Q9H228); experiment: GTPγS-35 binding assay, S1P5; assay type: biochemical; conditions: FIG. 11
T6 construct: expressed in transfected cells; host or cells: HEK293T (crude microsomes)
T6 sequence (Q9H228 whole entry): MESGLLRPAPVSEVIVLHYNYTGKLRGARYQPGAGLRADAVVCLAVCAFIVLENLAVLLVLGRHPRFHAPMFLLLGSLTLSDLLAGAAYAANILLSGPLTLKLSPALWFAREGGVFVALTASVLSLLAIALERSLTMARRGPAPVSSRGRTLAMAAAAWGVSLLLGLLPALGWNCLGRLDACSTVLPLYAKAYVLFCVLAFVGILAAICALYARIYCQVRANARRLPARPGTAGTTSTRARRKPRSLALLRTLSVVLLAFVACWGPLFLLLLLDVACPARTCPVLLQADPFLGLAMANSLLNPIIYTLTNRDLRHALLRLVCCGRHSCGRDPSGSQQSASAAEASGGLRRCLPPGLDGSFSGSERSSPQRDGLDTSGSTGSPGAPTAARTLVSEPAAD
T6 sequence (P04899 2-355 partner limits assumed): as the sequence (P04899 2-355 partner limits assumed) above
T6 sequence (P62873 2-340 partner limits assumed): as the sequence (P62873 2-340 partner limits assumed) above
T6 sequence (P59768 2-68 partner limits assumed): as the sequence (P59768 2-68 partner limits assumed) above
From the text: FIG. 11 graphically illustrates the results of a broken cell GTPγ^35S binding assay for the human S1P5 receptor. Compound ‘CA5-P’ is VPC01211. Compounds CA6-P and CA4-P are the corresponding cyclohexyl and cyclobutyl compounds.
as §1, with “remainder. Agonist (e.g., S1P) stimulation of the receptor-G protein complex on the microsomes results in the exchange of GTP for GDP on the alpha subunit in a dose-dependent manner.” for “remainder.”

[11] = target: T2, human S1P2 receptor; experiment: Calcium mobilization assay, CHO-K1 cells expressing S1P2; assay type: cell-based; set-up: expressed in transfected cells; host or cells: hamster CHO-K1, clonal population; conditions: FIG. 7
Method: FIG. 7 graphically illustrates the results of a calcium mobilization assay using CHO-K1 cells expressing recombinant human S1P2 receptor. […] The ordinate represents percent maximal calcium mobilization and the abscissa represents log molar concentration of lipid.
as §2
FIG. 7: CHOK1 cells transfected with S1P2 receptor DNA

activity at the S1P3 receptor (GTPγS binding) [3]	activity at the S1P2 receptor (GTPγS binding) [4]	activity at the S1P3 receptor (calcium mobilization) [5]	antagonism at S1P3 (rightward shift of S1P calcium response) [6]	agonist activity at the S1P1 receptor [7]	antagonism at S1P3 (rightward shifts in the S1P dose response curves) [8]	agonist activity at the S1P4 receptor [9]	agonist activity at the S1P5 receptor [10]	activity at the S1P2 receptor (calcium mobilization) [11]	SMILES	lymphopenia (total blood lymphocyte count) ([1]; mice, oral gavage, single dose, 2% hydroxypropyl beta-cyclodextrin (FIG. 3))	duration of lymphopenia ([1]; mice, single ED95 dose)	lymphopenia in mice without a functional SPHK2 gene ([1]; single oral dose, 24 hours (FIG. 5))	effect on heart rate [2]
									CCCCCCCCc1ccc(C2CCC(N)(CO)C2)cc1 (stereo not shown) [VPC01091, (1-amino-3-(4-octylphenyl)cyclopentyl)methanol]	profound, long lasting lymphopenia	lymphopenia for a week or more	no lymphopenia was observed	no effect on the heart rate
negative, or inverse, agonists	inactive	inactive	surmountable antagonism	partial agonists	surmountable antagonist	full agonists	partial agonists	inactive	CCCCCCCCc1ccc(C2CCC(N)(COP(=O)(O)O)C2)cc1 (stereo not shown) [VPC01211, (1-amino-3-(4-octylphenyl)cyclopentyl)methyl dihydrogen phosphate]				

Reference: patent US8329676B2, “Cycloalkane-containing sphingosine 1-phosphate agonists” (University of Virginia Patent Foundation, priority 2005, dated 2012)
